The subject of data set [1] is JNK (Hlr c-Jun HeLa cells). The data set is described as follows: C-Jun reporter assay. The format is cell-based. The note with it: Homo sapiens, MEKK1-transfected Hlr c-Jun HeLa cells, luciferase reporter. How it is done:
Hlr c-Jun HeLa cells are cultured in DMEM High Glc supplemented with 10% FCS (Sigma), 2 mM Glutamine (Gibco), P/S, Hygromycin b 100 µg/mL and G418 250 μg/mL
The cells from flasks of near-confluent cultures are detached and disaggregated by treatment with trypsin as described above. The cells are resuspended in culture medium and counted. The cell suspension are diluted with medium to give about 3.5×10^6 cells/mL and […] of cell suspension are put onto 2 10 cm culture dishes containing 9 mL of culture medium. The plates are incubated at 37° C. in a humidified atmosphere of 5% CO2 in air
• Control 0.2 μg pTK Renilla, 5.8 μg pBluescript KS, 500 μl OPTIMEM (GIBCO), 18 μl Fugene 6 • Induced 0.1 μg pMEKK1, 0.2 μg pTK Renilla, 5.7 μg pBluescript KS, 500 μl OPTIMEM (GIBCO), 18 μl Fugene 6 30′ RT
The transfection mixture is added to the plated cells. The plates are incubated over night at 37° C. in a humidified atmosphere of 5% CO2 in air
A 96 wells plate containing 100 μl of culture medium per well is prepared
Compound: 2 μl of Hit compound stock dilution are added to the 100 μl (in triplicate). The transfected cells are trypsinised and re-suspend in 12 mL of culture medium. 100 μl of the dilution are added to each of the 96 wells plate. The plate is incubated over night at 37° C. in a humidified atmosphere of 5% CO2 in air
The medium is removed from the plate and the cells washed two times with 100 μl PBS Completely remove the rinse solution before applying PLB reagent. Dispense into each culture well […] of 1×PLB. Place the culture plates on a rocking platform or orbital shaker with gentle rocking/shaking to ensure complete and even coverage of the cell monolayer with 1×PLB. Rock the culture plates at room temperature for 15 minutes. Transfer 20 μl of the lysate into a white opaque 96 wells plate. Read in a luminometer. • Inject 50 μl of Luciferase Assay Reagent II wait 5″, read 10″ • Inject 50 μl of Stop & Glo® Reagent wait 5″, read 10″ Check RLU Luciferase/RLU Renilla*1000
On the technique in general: A reporter such as luciferase makes a cellular process visible.

In data set [2] the target is recombinant, pre-activated GST-JNK2 (Homo sapiens, UniProt P45984). As to the kind of experiment: JNK2 enzyme assay (SPA, GST-c-Jun phosphorylation). The format is biochemical. The following applies: 2 μM ATP, 120 min at R.T. How it is done:
(§1) JNK2 and 3 enzyme assay: […] The incubation is performed for 120 min. at R.T and stopped upon addition of 200 μl of a solution containing 250 μg of Streptavidine-coated SPA beads (Amersham, Inc.)*, 5 mM EDTA, 0.1% Triton X-100 and 50 μM ATP, in phosphate saline buffer. After incubation for 60 minutes at RT, beads are sedimented by centrifugation at 1500×g for 5 minutes, resuspended in 200 μl of PBS containing 5 mM EDTA, 0.1% Triton X-100 and 50 μM ATP and the radioactivity measured in a scintillation β counter, following sedimentation of the beads as described above. By substituting GST-c Jun for biotinylated GST-1ATF2 or myelin basic protein, this assay can be used to measure inhibition of preactivated p38 and ERK MAP Kinases, respectively.

The next data set has as its target ERK2 (Homo sapiens, UniProt P28482). As to the kind of experiment: ERK2 enzyme assay (SPA, myelin basic protein substrate). The format is biochemical. The method, then:
as §1

Data set [3] has as its target recombinant, pre-activated GST-JNK3 (Homo sapiens, UniProt P53779). As to the kind of experiment: JNK3 enzyme assay (SPA, GST-c-Jun phosphorylation). The following applies: 2 μM ATP, 120 min at R.T. It is filed as biochemical. How it is done:
as §1

A further data set addresses preactivated p38 (Homo sapiens, UniProt Q16539). As to the kind of experiment: p38 enzyme assay (SPA, GST-ATF2 substrate). It is filed as biochemical. The method, then:
The incubation is performed for 120 min. at R.T and stopped upon addition of 200 μl of a solution containing 250 μg of Streptavidine-coated SPA beads (Amersham, Inc.)*, 5 mM EDTA, 0.1% Triton X-100 and 50 μM ATP, in phosphate saline buffer. After incubation for 60 minutes at RT, beads are sedimented by centrifugation at 1500×g for 5 minutes, resuspended in 200 μl of PBS containing 5 mM EDTA, 0.1% Triton X-100 and 50 μM ATP and the radioactivity measured in a scintillation β counter, following sedimentation of the beads as described above. By substituting GST-c Jun for biotinylated GST-1ATF2 or myelin basic protein, this assay can be used to measure inhibition of preactivated p38 and ERK MAP Kinases, respectively.

Structures can show the parent of a compound that is named as a salt.

ERK2, sequence (P28482 whole entry, species assumed): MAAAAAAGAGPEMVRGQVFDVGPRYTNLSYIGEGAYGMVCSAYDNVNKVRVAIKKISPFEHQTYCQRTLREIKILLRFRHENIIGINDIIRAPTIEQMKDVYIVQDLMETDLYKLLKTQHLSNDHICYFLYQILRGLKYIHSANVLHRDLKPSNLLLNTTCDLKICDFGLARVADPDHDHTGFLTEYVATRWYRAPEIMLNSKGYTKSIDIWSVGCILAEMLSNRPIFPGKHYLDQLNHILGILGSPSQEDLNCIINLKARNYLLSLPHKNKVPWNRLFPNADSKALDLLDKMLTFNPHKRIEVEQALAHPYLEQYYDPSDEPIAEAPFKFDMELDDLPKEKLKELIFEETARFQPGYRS
recombinant, pre-activated GST-JNK2, sequence (P45984 whole entry): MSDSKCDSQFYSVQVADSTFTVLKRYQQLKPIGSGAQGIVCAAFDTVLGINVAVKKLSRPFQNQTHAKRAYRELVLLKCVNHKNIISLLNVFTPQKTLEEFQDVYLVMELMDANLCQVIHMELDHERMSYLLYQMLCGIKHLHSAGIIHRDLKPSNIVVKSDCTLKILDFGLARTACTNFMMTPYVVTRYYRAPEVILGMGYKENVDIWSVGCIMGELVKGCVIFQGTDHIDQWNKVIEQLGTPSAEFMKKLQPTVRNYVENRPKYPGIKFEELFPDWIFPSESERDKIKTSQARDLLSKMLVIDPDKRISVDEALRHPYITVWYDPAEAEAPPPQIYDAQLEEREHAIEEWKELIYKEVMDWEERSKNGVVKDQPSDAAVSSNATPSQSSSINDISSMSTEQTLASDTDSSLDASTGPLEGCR
recombinant, pre-activated GST-JNK3, sequence (P53779 whole entry): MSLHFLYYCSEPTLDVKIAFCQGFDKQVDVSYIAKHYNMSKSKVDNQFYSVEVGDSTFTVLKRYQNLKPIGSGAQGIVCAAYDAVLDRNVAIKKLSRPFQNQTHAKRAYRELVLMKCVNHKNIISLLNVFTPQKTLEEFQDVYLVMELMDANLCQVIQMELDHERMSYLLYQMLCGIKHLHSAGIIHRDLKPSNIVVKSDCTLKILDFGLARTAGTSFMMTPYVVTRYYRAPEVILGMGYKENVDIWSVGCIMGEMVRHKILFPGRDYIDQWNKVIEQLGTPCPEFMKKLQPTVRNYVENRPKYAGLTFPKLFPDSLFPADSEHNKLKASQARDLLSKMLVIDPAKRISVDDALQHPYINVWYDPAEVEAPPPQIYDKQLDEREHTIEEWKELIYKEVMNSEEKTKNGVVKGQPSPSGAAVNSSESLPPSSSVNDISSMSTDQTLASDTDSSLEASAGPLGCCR
preactivated p38, sequence (Q16539 whole entry): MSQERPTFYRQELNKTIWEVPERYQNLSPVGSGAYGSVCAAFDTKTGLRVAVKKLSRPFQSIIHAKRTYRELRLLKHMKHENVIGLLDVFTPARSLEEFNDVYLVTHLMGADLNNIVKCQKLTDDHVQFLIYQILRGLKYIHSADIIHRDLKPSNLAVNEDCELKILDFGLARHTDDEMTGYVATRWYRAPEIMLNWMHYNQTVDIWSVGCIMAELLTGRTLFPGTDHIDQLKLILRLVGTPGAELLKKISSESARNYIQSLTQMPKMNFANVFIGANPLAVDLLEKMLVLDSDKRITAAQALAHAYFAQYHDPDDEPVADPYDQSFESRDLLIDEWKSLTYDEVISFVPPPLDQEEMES

As for `N#CC(c1ccnc(NCCc2ccccn2)n1)c1nc2ccccc2s1` (stereo not drawn) (as salt: TFA) [Compound 28, 1,3-benzothiazol-2-yl(2-{[2-(2-pyridinyl)ethyl]amino}-4-pyrimidinyl)acetonitrile], the melting point (in general, the temperature of the solid-liquid transition) was 247 °C (dec.).
As to `N#CC(c1ccnc(NCCc2cccnc2)n1)c1nc2ccccc2s1` (stereo not drawn) [Compound 33, 1,3-benzothiazol-2-yl(2-{[2-(3-pyridinyl)ethyl]amino}-4-pyrimidinyl)acetonitrile], the inhibition (usually the relative decrease from the control value, in per cent) at 10 µM in data set [1] is more than 50%.
For the compound `N#CC(c1ccnc(NCc2ccccn2)n1)c1nc2ccccc2s1` (stereo not drawn) (as salt: TFA) [Compound 29, 1,3-benzothiazol-2-yl{2-[(2-pyridinylmethyl)amino]-4-pyrimidinyl}acetonitrile], the melting point is 250 °C (dec.).
Still for that read-out and setting: as for `N#CC(c1ccnc(NCCc2ccccc2)n1)c1nc2ccccc2s1` (stereo not drawn) [Compound 27, 1,3-benzothiazol-2-yl {2-[(2-phenylethyl)amino]-4-pyrimidinyl}acetonitrile], the figure is 256 °C (dec.).
For the compound `N#CC(c1ccnc(N2CCCC2)n1)c1nc2ccccc2s1` (stereo not drawn) [Compound 26, 1,3-benzothiazol-2-yl[2-(1-pyrrolidinyl)-4-pyrimidinyl]acetonitrile], the melting point was in the range of 270 to 272 °C.
On the same count and under the same terms, the value for `N#CC(c1ccnc(NCCc2ccc(O)cc2)n1)c1nc2ccccc2s1` (stereo not drawn) [Compound 43, 1,3-benzothiazol-2-yl(2-{[2-(4-hydroxyphenyl)ethyl]amino}pyrimidin-4-yl)acetonitrile] was 258 to 261 °C.
Regarding `CSc1nccc(C(C#N)c2nc3ccccc3s2)n1` (stereo not drawn) [Compound 4, 1,3-benzothiazol-2-yl[2-(methylsulfanyl)-4-pyrimidinyl]acetonitrile], the half-maximal inhibitory concentration (IC50) (in general, the concentration needed to halve the response being measured) in data set [2] was 970 nM; at ERK2, more than 30000 nM; in data set [3] it was 350 nM.
In data set [1], `N#CC(c1ccnc(OCc2ccc(CN3CCOCC3)cc2)n1)c1nc2ccccc2s1` (stereo not drawn) [Compound 93, 1,3-benzothiazol-2-yl(2-{[4-(morpholin-4-ylmethyl)benzyl]oxy}pyrimidin-4-yl)acetonitrile] had an inhibition at 10 µM of more than 50%.
Same read-out and setting: as for `N#CC(c1ccnc(OCc2ccc(CN3CCCCC3)cc2)n1)c1nc2ccccc2s1` (stereo not drawn) [Compound 95, 1,3-benzothiazol-2-yl(2-{[4-(piperidin-1-ylmethyl)benzyl]oxy}pyrimidin-4-yl)acetonitrile], the figure is more than 50%.
For `N#CC(c1ccnc(NCCc2c[nH]cn2)n1)c1nc2ccccc2s1` (stereo not drawn) [Compound 10, 1,3-benzothiazol-2-yl(2-{[2-(1H-imidazol-4-yl)ethyl]amino}-4-pyrimidinyl)acetonitrile], the IC50 in data set [2] is 210 nM; against ERK2, more than 30000 nM; in data set [3], 70 nM; on preactivated p38 it was more than 30000 nM.
Consider `CNc1nccc(C(C#N)c2nc3ccccc3s2)n1` (stereo not drawn) [Compound 15, 1,3-benzothiazol-2-yl[2-(methylamino)-4-pyrimidinyl]acetonitrile], for which the half-maximal inhibitory concentration (IC50) is 2300 nM in data set [2], more than 30000 nM on ERK2 and 950 nM in data set [3].
With `N#CC(c1ccnc(Cl)n1)c1nc2ccccc2s1` (stereo not drawn) [Compound 1, 1,3-benzothiazol-2-yl(2-chloro-4-pyrimidinyl)-acetonitrile], the IC50 was 500 nM in data set [2], more than 30000 nM against ERK2 and 290 nM in data set [3].
The like results for `COc1nccc(C(C#N)c2nc3ccccc3s2)n1` (stereo not drawn) [Compound 102, 1,3-benzothiazol-2-yl(2-methoxy-4-pyrimidinyl)-acetonitrile] were, in that order, 450 nM, more than 30000 nM and 105 nM.
Turning to `CN(C)CCCNc1nccc(C(C#N)c2nc3ccccc3s2)n1` (stereo not drawn) (as salt: TFA) [Compound 47, 1,3-benzothiazol-2-yl(2-{[3-(dimethylamino)propyl]amino}pyrimidin-4-yl)acetonitrile], the melting point fell in the range of 204 to 205 °C.
In the case of `N#CC(c1ccnc(OCc2ccccc2)n1)c1nc2ccccc2s1` (stereo not drawn) [Compound 80, 1,3-benzothiazol-2-yl[2-(benzyloxy)pyrimidin-4-yl]acetonitrile], the half-inhibitory concentration (IC50) in data set [2] is 250 nM; at ERK2, more than 30000 nM; in data set [3], 60 nM; against preactivated p38, more than 30000 nM.
Take `N#CC(c1ccnc(NCCO)n1)c1nc2ccccc2s1` (stereo not drawn) [Compound 23, 1,3-benzothiazol-2-yl {2-[(2-hydroxyethyl)amino]-4-pyrimidinyl}acetonitrile]: the IC50 in data set [2] was 1800 nM; on ERK2 it was more than 30000 nM; in data set [3], 510 nM; on preactivated p38, more than 30000 nM.
`COc1ccc(Oc2nccc(C(C#N)c3nc4ccccc4s3)n2)cc1` (stereo not drawn) [Compound 96, 1,3-benzothiazol-2-yl[2-(4-methoxyphenoxy)pyrimidin-4-yl]acetonitrile]: the half-inhibitory concentration (IC50) in data set [2] is 300 nM; against ERK2, more than 30000 nM; in data set [3] it was 30 nM; on preactivated p38 it was more than 30000 nM.
For `N#CC(c1ccnc(NCCN2CCCCC2)n1)c1nc2ccccc2s1` (stereo not drawn) (as salt: TFA) [Compound 48, 1,3-benzothiazol-2-yl {2-[(2-piperidin-1-ylethyl)amino]pyrimidin-4-yl}acetonitrile], the melting point fell in the range of 228 to 230 °C.
Same read-out and setting: the value for `Cn1cncc1CCNc1nccc(C(C#N)c2nc3ccccc3s2)n1` (stereo not drawn) (as salt: TFA) [Compound 49, 1,3-benzothiazol-2-yl(2-{[2-(1-methyl-1H-imidazol-5-yl)ethyl]amino}pyrimidin-4-yl)acetonitrile] was 219 to 220 °C.

(Values after patent publication US7470686B2, “Method of inhibiting the expression and/or the activity of JNK” (Laboratoires Serono SA, priority 1999, dated 2008).)
